One may read the melting point as the temperature of the solid-liquid transition. The molecule `Cc1ccccc1Oc1nnc(Cl)cc1OS(=O)(=O)c1ccccc1` [Compound No. 2147, 6-Chloro-3-(2-methylphenoxy)-4-pyridazinyl benzenesulfonate] displayed a melting point of 91.5 to 92 °C.

As for `CCC1(c2ccccc2Oc2nnc(Cl)cc2O)CC1` [Compound No. 145, 6-Chloro-3-[2-(1-ethylcyclopropyl)phenoxy]-4-pyridazinol], the melting point is 162 to 165 °C.

On to `CC(C)=Cc1ccccc1Oc1nnc(Cl)cc1O` [Compound No. 2540, 6-Chloro-3-[2-(2-methyl-1-propenyl)phenoxy]-4-pyridazinol], for which the melting point fell in the range of 149 to 152 °C.

`O=C(O)C1(c2ccccc2Oc2nnc(Cl)cc2O)CCC1` [Compound No. 288, 1-{2-[(6-Chloro-4-hydroxy-3-pyridazinyl)oxy]phenyl}cyclobutanecarboxylic acid] had a melting point of 173 to 175 °C.

`CC(C)(C)c1ccccc1Oc1nnc(Cl)cc1OS(=O)(=O)c1ccc(Cl)cc1` [Compound No. 2200, 3-(2-tert-Butylphenoxy)-6-chloro-4-pyridazinyl 4-chlorobenzenesulfonate] yielded a melting point of 83.5 to 84.5 °C.

For the molecule `Oc1cc(Cl)nnc1Oc1ccccc1C1(C2CC2)CC1` [Compound No. 151, 6-Chloro-3-{2-[1-(cyclopropyl)cyclopropyl]phenoxy}-4-pyridazinol], the melting point was in the range of 180 to 182 °C.

Take `Nc1ccccc1OC1(Cl)NN=CC=C1O` (stereo not shown) [Compound No. 377, 3-(2-Aminophenoxy)-3-chloro-4-pyridazinol]: the melting point was in the range of 249 to 250 °C.

In the case of `CCOCc1ccccc1Oc1nnc(Cl)cc1O` [Compound No. 325, 6-Chloro-3-[2-(ethoxymethyl)phenoxy]-4-pyridazinol], the melting point was 173 to 174 °C.

`CCc1ccc(OC)cc1Oc1nnc(Cl)cc1O` [Compound No. 635, 6-Chloro-3-(2-ethyl-5-methoxyphenoxy)-4-pyridazinol] gave a melting point of 124 to 126 °C.

`Oc1cc(Cl)nnc1Oc1ccccc1C1OCCO1` [Compound No. 329, 6-Chloro-3-[2-(1,3-dioxolan-2-yl)phenoxy]-4-pyridazinol] registered a melting point of 143 to 145 °C.

`CC#Cc1ccccc1Oc1nnc(Cl)cc1O` [Compound No. 309, 6-Chloro-3-[2-(1-propynyl)phenoxy]-4-pyridazinol] yielded a melting point of 182 to 184 °C.

In turn, `Cc1cccc(Oc2nnc(Cl)cc2O)c1Br` [Compound No. 450, 3-(2-Bromo-3-methylphenoxy)-6-chloro-4-pyridazinol] gave a melting point of 140 to 141 °C.

Take `Cc1c(C)c(C)c(Oc2nnc(Cl)cc2O)c(C)c1C` [Compound No. 2614, 6-Chloro-3-(2,3,4,5,6-pentamethylphenoxy)-4-pyridazinol]: the melting point was 238 to 240 °C (dec.).

In turn, `Cc1cccc(C2CC2)c1Oc1nnc(Cl)cc1OC(=O)N(C(C)C)C(C)C` registered a melting point of 103 to 105 °C.

The molecule `COc1cccc(Oc2nnc(Cl)cc2O)c1` [Compound No. 425, 6-Chloro-3-(3-methoxyphenoxy)-4-pyridazinol] came in with a melting point of 199 to 203 °C.

Take `Cc1cc(C)c(Oc2nnc(Cl)cc2O)c(C2CC2)c1` [Compound No. 1123, 6-Chloro-3-(2-cyclopropyl-4,6-dimethylphenoxy)-4-pyridazinol]: the melting point was 215 to 217 °C.

Consider `Oc1cc(Cl)nnc1Oc1ccccc1Br` [Compound No. 126, 3-(2-Bromophenoxy)-6-chloro-4-pyridazinol], for which the melting point is 201 to 203 °C.

Molecule `Oc1cc(Cl)nnc1Oc1cccc2c1CC2` [Compound No. 505, 3-(Bicyclo[4.2.0]octa-1,3,5-trien-2-yloxy)-6-chloro-4-pyridazinol] gave a melting point of 145 to 155 °C.

For `CC(C)c1cc(Oc2nnc(Cl)cc2O)cc(C(C)C)c1` [Compound No. 1007, 6-Chloro-3-(3,5-diisopropylphenoxy)-4-pyridazinol], the melting point lay in the range of 249 to 253 °C.

`CC=Cc1cc(O)c(Oc2ccccc2C)nn1` [Compound No. 2442, 3-(2-Methylphenoxy)-6-(1-propenyl)-4-pyridazinol] displayed a melting point of 208 to 210 °C.

For the molecule `Oc1cc(Cl)nnc1Oc1cccc(C(F)(F)F)c1Cl` [Compound No. 446, 6-Chloro-3-[2-chloro-3-(trifluoromethyl)phenoxy]-4-pyridazinol], the melting point lay in the range of 170 to 200 °C.

Regarding `Cc1cccc(Oc2nnc(Cl)cc2O)c1C1CC1` [Compound No. 472, 6-Chloro-3-(2-cyclopropyl-3-methylphenoxy)-4-pyridazinol], the melting point lay in the range of 197 to 198 °C.

On to `CCc1cc(I)ccc1Oc1nnc(Cl)cc1O` [Compound No. 562, 6-Chloro-3-(2-ethyl-4-iodophenoxy)-4-pyridazinol], for which the melting point is 199 to 201 °C.

In turn, `Cc1ccccc1Oc1n[n+]([O-])c(Cl)cc1O` [Compound No. 129, 6-Chloro-3-(2-methylphenoxy)-4-pyridazinol 1-oxide] had a melting point of 194 to 196 °C.

Consider `CCCc1ccccc1Oc1nnc(Cl)cc1O` [Compound No. 131, 6-Chloro-3-(2-propylphenoxy)-4-pyridazinol], for which the melting point fell in the range of 170 to 172 °C.

Regarding `C=C(C)c1ccccc1Oc1nnc(Cl)cc1O` [Compound No. 304, 6-Chloro-3-(2-isopropenylphenoxy)-4-pyridazinol], the melting point was in the range of 187 to 188 °C.

With `Oc1cc(Cl)nnc1Oc1c(C2CC2)cccc1C1CC1` [Compound No. 931, 6-Chloro-3-(2,6-dicyclopropylphenoxy)-4-pyridazinol], the melting point is 232 to 234 °C.

As to `Cc1cc(C)cc(Oc2nnc(Cl)cc2O)c1` [Compound No. 998, 6-Chloro-3-(3,5-dimethylphenoxy)-4-pyridazinol], the melting point was 178 to 182 °C.

Molecule `CC(C)c1cccc(I)c1Oc1nnc(Cl)cc1O` [Compound No. 782, 6-Chloro-3-(2-iodo-6-isopropylphenoxy)-4-pyridazinol] displayed a melting point of 250 to 255 °C.

`COc1ccc(Cl)cc1Oc1nnc(Cl)cc1O` [Compound No. 701, 3-(5-Chloro-2-methoxyphenoxy)-6-chloro-4-pyridazinol] yielded a melting point of 143 to 155 °C.

Turning to `Oc1cc(Cl)nnc1Oc1cccc2c1CCO2` [Compound No. 528, 6-Chloro-3-(2,3-dihydro-1-benzofuran-4-yloxy)-4-pyridazinol], the melting point is 219 to 221 °C.

On to `N#CC1(c2ccccc2Oc2nnc(Cl)cc2O)CC1` [Compound No. 173, 1-{2-[(6-Chloro-4-hydroxy-3-pyridazinyl)oxy]phenyl}cyclopropanecarbonitrile], for which the melting point fell in the range of 63 to 64 °C.

The molecule `Oc1cc(Cl)nnc1Oc1ccccc1C1CC1(Cl)Cl` (stereo not shown) [Compound No. 265, 6-Chloro-3-[2-(2,2-dichlorocyclopropyl)phenoxy]-4-pyridazinol] registered a melting point of 158 to 163 °C.

In turn, `Cc1ccc(S(=O)(=O)Oc2cc(Cl)nnc2Oc2ccccc2C2CCCCC2)cc1` [Compound No. 2230, 6-Chloro-3-(2-cyclohexylphenoxy)-4-pyridazinyl 4-methylbenzenesulfonate] showed a melting point of 120 to 121 °C.

`COc1ccc(Oc2nnc(Cl)cc2O)cc1` [Compound No. 435, 6-Chloro-3-(4-methoxyphenoxy)-4-pyridazinol]: the melting point is 260 to 263.5 °C.

`COc1cccc(Oc2nnc(Cl)cc2O)c1I` [Compound No. 2551, 6-Chloro-3-(2-iodo-3-methoxyphenoxy)-4-pyridazinol] yielded a melting point of 231 to 234 °C.

In turn, `C[Si](C)(C)c1c(Cl)nnc(Oc2ccccc2)c1O` came in with a melting point of 119 to 120 °C.

`Cc1cc(C)c(C)c(Oc2nnc(Cl)cc2O)c1` [Compound No. 1016, 6-Chloro-3-(2,3,5-trimethylphenoxy)-4-pyridazinol] gave a melting point of 223 to 224 °C.

`CON(C)C(=O)Oc1cc(Cl)nnc1Oc1c(C)cccc1C1CC1` displayed a melting point of 63 to 64.5 °C.

As to `COc1ccc(C#N)cc1Oc1nnc(Cl)cc1O` [Compound No. 707, 3-[(6-Chloro-4-hydroxy-3-pyridazinyl)oxy]-4-methoxybenzonitrile], the melting point was 187 to 192 °C.

`Cc1cccc(C2CC2)c1Oc1nnc(Cl)cc1OC(=O)n1c2ccccc2c2ccccc21` [Compound No. 3714, 6-Chloro-3-(2-cyclopropyl-6-methylphenoxy)-4-pyridazinyl 9H-carbazole-9-carboxylate] gave a melting point of 157 to 159 °C.

`Cc1ccccc1Oc1nnc(Cl)cc1OC(=O)c1ccccc1C` [Compound No. 1446, 6-Chloro-3-(2-methylphenoxy)-4-pyridazinyl 2-methylbenzoate] yielded a melting point of 91 to 93 °C.

Consider `Cc1ccccc1C(=O)Oc1cc(Cl)nnc1Oc1ccccc1C1CCCCC1` [Compound No. 1455, 6-Chloro-3-(2-cyclohexylphenoxy)-4-pyridazinyl 2-methylbenzoate], for which the melting point fell in the range of 89 to 91 °C.

Regarding `C=CCc1c(OC)ccc(CC)c1Oc1nnc(Cl)cc1O` [Compound No. 1080, 3-(2-Allyl-6-ethyl-3-methoxyphenoxy)-6-chloro-4-pyridazinol], the melting point lay within 183 to 186 °C.

`Oc1cc(Cl)nnc1Oc1cccc2c1CC1CC21` (stereo not shown) [Compound No. 516, 3-(1,1a,6,6a-Tetrahydrocyclopropa[a]inden-5-yloxy)-6-chloro-4-pyridazinol]: the melting point lay in the range of 211 to 213 °C.

Molecule `Cc1nc2cccc(Oc3nnc(Cl)cc3O)c2o1` [Compound No. 549, 6-Chloro-3-[(2-methyl-1,3-benzoxazol-7-yl)oxy]-4-pyridazinol] came in with a melting point of 197 to 202 °C.

The molecule `CC(C)c1cccc(C2CC2)c1Oc1nnc(Cl)cc1O` [Compound No. 896, 6-Chloro-3-(2-cyclopropyl-6-isopropylphenoxy)-4-pyridazinol] yielded a melting point of 242 to 245 °C.

Consider `Cc1ccc(Oc2nnc(Cl)cc2O)cc1` [Compound No. 430, 6-Chloro-3-(4-methylphenoxy)-4-pyridazinol], for which the melting point is 261 to 263 °C.

As for `COCC1(c2ccccc2Oc2nnc(Cl)cc2O)CC1` [Compound No. 163, 6-Chloro-3-{2-[1-(methoxymethyl)cyclopropyl]phenoxy}-4-pyridazinol], the melting point was 187 to 190 °C.

The record behind these values is patent publication US7964531B2, “3-phenoxy-4-pyridazinol derivatives and herbicidal composition containing the same” (Mitsui Chemicals Agro, Inc., priority 2001, dated 2011).
